The supplement of paper PMC10307832

Legend:
Test in all cases: relative viability (nuclei count vs DMSO), 5 days (fraction); higher = more cells survive
[1] = compound: Cn1cnc2c(F)c(Nc3ccc(Br)cc3Cl)c(C(=O)NOCCO)cc21 [Selumetinib] + O=C(c1cc(Cc2n[nH]c(=O)c3ccccc23)ccc1F)N1CCN(C(=O)C2CC2)CC1 [Olaparib] (partner 8 µM)
Summary of the method: (§1)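 Lung cancer cell lines were seeded in 1536-well plates and dosed by pin tool the next day, with either a single drug or a fixed anchor-drug dose combined with five library-drug doses (not always all listed) spaced in √10 steps. Five days later, one step fixed the cells and stained their nuclei (final 0.05% Triton X-100, 1% formaldehyde, 1 ug/ml Hoechst), and nuclei were counted on 4× images. Relative viability is the nuclei count in treated wells divided by the count in vehicle wells, and each value is the median of duplicate plates.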

[2] = compound: CC1(C)CCC(CN2CCN(c3ccc(C(=O)NS(=O)(=O)c4ccc(NCC5CCOCC5)c([N+](=O)[O-])c4)c(Oc4cnc5[nH]ccc5c4)c3)CC2)=C(c2ccc(Cl)cc2)C1 [Venetoclax] + C[C@]1(O)C[C@@H](c2nc(-c3ccc4ccc(-c5ccccc5)nc4c3)c3c(N)nccn32)C1 [Linsitinib] (partner 1 µM)
Summary of the method: as §1

[3] = compound: Cn1cnc2c(F)c(Nc3ccc(Br)cc3Cl)c(C(=O)NOCCO)cc21 [Selumetinib] + Nc1nc2[nH]cc(CCc3ccc(C(=O)N[C@@H](CCC(=O)O)C(=O)O)cc3)c2c(=O)[nH]1 [Pemetrexed] (partner 0.2 µM)
Summary of the method: as §1

[4] = compound: Cn1cnc2c(F)c(Nc3ccc(Br)cc3Cl)c(C(=O)NOCCO)cc21 [Selumetinib] + C[C@@H](Oc1cc(-c2cnn(C3CCNCC3)c2)cnc1N)c1c(Cl)ccc(F)c1Cl [Crizotinib] (partner 1 µM)
Summary of the method: as §1

Cell Line	relative viability ([1]; first compound 0.02 µM)	relative viability ([1]; first compound 0.06325 µM)	relative viability ([1]; first compound 0.2 µM)	relative viability ([1]; first compound 0.6325 µM)	relative viability ([2]; first compound 0.01 µM)	relative viability ([2]; first compound 0.03162 µM)	relative viability ([2]; first compound 0.1 µM)	relative viability ([2]; first compound 0.3162 µM)	relative viability ([2]; first compound 1 µM)	relative viability ([3]; first compound 0.02 µM)	relative viability ([3]; first compound 0.06325 µM)	relative viability ([3]; first compound 0.2 µM)	relative viability ([3]; first compound 0.6325 µM)	relative viability ([4]; first compound 0.02 µM)	relative viability ([4]; first compound 0.06325 µM)	relative viability ([4]; first compound 0.2 µM)	relative viability ([4]; first compound 0.6325 µM)
NCI-H2009	0.775	0.6	0.608	0.316	1.2	1.14	1.09	1.09	1.11	1.03	0.945	0.792	0.45	0.765	0.623	0.53	0.336
CAL-12T	0.678	0.651	0.595	0.564	0.728	0.931	0.685	0.776	0.691	1.28	1.25	1.1	0.969	0.621	0.573	0.704	0.597
HCC-78	0.904	0.738	0.723	0.789	0.494	0.563	0.433	0.571	0.596	0.836	0.892	0.918	0.903	0.276	0.306	0.281	0.299
EKVX	0.777	0.741	0.643	0.629	0.909	0.976	0.88	1.03	0.844	0.342	0.361	0.323	0.307	0.909	0.889	0.614	0.639
NCI-H1703	0.521	0.411	0.39	0.605	0.549	0.652	0.81	0.756	0.755	–	–	–	–	0.664	0.653	0.647	0.616
NCI-H1944	0.394	0.386	0.359	0.318	1.4	1.28	1.15	1.16	1.23	0.573	0.476	0.405	0.484	1.03	0.887	0.497	0.71
NCI-H1755	0.848	0.787	0.807	0.847	0.978	1	0.848	0.964	0.969	0.467	0.409	0.428	0.509	0.895	0.765	0.802	0.842
Calu-6	0.62	0.489	0.421	0.362	0.897	0.943	1.01	0.901	0.896	–	–	–	–	0.804	0.603	0.51	0.343
EBC-1	0.717	0.66	0.599	0.443	0.902	0.963	0.912	0.837	0.786	–	–	–	–	0.179	0.16	0.175	0.147
EPLC-272H	0.531	0.512	0.519	0.575	–	1.31	1.06	1.45	1.07	0.317	0.375	0.326	0.34	0.877	0.846	0.707	0.731
A-427	0.724	0.771	0.802	0.845	1.06	1.18	1.1	1.16	1.19	1.11	1.05	1.05	1.04	0.88	0.768	0.73	0.701
NCI-H3122	0.609	0.571	0.563	0.565	1.08	1.02	0.969	1.06	1.06	0.181	0.171	0.156	0.169	0.238	0.234	0.23	0.236
NCI-H1563	–	–	–	–	1.16	1.29	1.28	1.4	1.24	0.835	0.778	0.918	0.898	0.858	0.825	0.865	0.781
NCI-H358	0.463	0.367	0.282	0.207	0.754	0.812	0.624	0.679	0.702	0.173	0.165	0.144	0.177	0.467	0.368	0.326	0.319
SK-LU-1	0.467	0.459	0.401	0.335	1.01	1.25	0.998	1.04	1.13	1	0.978	0.862	0.614	0.922	0.881	0.828	0.46
NCI-H2347	0.386	0.467	0.403	0.355	0.93	0.953	1.01	0.958	0.95	0.425	0.402	0.399	0.392	0.771	0.645	0.42	0.511
IA-LM	1.09	0.531	0.587	0.482	0.51	0.605	0.71	0.418	0.403	–	–	–	–	0.662	0.54	0.314	0.335
HCC-15	0.694	0.622	0.575	0.368	0.763	0.826	0.742	0.794	0.771	0.194	0.221	0.203	0.214	0.669	0.498	0.395	0.256
PC-3 [JPC-3]	1.03	1.07	0.992	0.854	0.922	1.01	0.977	0.938	0.949	1.2	0.819	0.82	0.836	0.98	0.904	0.905	0.774
